pIC50: −log10 of the molar value. The source made the active and inactive calls. The rule behind the calls is not given here.

Assay [1] deals with T1, DNA topoisomerase 1 (Homo sapiens) (UniProt P11387).
T1 sequence (whole entry): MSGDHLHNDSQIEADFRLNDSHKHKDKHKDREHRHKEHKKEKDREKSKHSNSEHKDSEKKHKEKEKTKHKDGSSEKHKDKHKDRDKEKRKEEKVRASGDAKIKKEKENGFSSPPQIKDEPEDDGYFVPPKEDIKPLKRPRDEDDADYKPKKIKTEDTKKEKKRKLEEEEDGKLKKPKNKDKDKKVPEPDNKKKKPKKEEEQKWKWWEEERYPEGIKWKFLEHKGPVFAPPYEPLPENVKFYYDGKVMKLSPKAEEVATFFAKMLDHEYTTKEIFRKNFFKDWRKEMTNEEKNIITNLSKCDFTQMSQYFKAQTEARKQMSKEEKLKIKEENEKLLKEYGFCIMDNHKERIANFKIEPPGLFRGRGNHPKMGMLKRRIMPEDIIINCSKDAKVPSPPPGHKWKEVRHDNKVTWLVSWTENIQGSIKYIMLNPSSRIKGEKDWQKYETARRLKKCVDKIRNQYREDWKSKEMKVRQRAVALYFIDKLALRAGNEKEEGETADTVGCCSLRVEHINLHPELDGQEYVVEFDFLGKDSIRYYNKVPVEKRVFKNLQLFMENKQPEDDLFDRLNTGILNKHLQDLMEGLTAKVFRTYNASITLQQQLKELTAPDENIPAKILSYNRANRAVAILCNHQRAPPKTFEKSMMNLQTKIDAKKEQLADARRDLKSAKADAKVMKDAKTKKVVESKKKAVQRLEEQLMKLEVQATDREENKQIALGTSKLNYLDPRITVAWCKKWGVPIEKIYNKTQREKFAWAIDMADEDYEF
Briefly: Inhibition of human topoisomerase 1 assessed as relaxation of supercoiled pBR322 DNA up to 200 uM by agarose gel electrophoresis.

Assay [2] deals with T2, DNA topoisomerase 2-alpha (Homo sapiens, UniProt P11388). Put plainly: Inhibition of 1 unit human topoisomerase 2alpha catalytic activity assessed as relaxation of 198 ng supercoiled pBR322 DNA at 200 uM by agarose gel electrophoresis.
T2 sequence (P11388 whole entry): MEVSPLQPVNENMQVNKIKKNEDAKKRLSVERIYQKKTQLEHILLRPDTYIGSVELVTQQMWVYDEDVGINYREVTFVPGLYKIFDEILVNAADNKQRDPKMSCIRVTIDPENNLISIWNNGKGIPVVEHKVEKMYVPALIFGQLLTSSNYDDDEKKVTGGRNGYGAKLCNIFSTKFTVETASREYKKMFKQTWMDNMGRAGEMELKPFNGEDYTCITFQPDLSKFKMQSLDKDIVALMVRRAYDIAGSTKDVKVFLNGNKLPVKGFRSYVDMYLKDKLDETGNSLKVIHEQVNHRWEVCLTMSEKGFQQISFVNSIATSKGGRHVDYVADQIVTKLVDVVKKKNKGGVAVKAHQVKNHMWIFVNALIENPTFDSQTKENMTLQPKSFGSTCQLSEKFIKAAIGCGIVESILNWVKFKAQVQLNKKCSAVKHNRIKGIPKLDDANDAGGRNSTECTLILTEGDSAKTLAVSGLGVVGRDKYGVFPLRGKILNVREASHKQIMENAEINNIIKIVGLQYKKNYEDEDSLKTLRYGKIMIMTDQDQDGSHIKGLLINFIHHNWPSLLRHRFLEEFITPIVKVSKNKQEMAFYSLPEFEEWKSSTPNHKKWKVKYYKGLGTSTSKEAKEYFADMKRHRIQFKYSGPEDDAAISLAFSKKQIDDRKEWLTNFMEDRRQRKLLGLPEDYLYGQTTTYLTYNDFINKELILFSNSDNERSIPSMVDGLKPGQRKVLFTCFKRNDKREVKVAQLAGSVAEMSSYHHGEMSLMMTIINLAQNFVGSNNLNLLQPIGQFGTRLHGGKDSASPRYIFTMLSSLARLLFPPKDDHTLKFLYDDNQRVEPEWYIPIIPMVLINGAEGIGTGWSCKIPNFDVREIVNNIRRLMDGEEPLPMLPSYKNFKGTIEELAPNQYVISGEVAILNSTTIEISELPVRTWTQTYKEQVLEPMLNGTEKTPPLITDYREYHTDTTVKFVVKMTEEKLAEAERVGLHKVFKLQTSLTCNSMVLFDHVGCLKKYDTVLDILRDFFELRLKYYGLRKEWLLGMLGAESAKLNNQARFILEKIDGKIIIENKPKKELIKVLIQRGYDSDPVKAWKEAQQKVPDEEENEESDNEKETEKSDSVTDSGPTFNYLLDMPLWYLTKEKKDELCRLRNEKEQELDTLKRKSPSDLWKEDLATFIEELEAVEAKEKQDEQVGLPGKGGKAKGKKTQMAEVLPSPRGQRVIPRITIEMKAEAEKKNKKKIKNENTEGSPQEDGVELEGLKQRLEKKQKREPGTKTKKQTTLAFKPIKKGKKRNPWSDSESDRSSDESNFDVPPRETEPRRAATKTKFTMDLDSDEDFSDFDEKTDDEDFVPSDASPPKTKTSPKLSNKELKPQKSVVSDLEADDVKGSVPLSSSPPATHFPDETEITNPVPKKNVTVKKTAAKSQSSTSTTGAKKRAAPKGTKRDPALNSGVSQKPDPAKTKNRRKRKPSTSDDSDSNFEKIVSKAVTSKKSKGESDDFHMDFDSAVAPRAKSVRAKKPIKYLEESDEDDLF
In assay [3] the target is T2, DNA topoisomerase 2-alpha. Put plainly: Inhibition of human 1 unit topoisomerase 2alpha catalytic activity assessed as relaxation of 198 ng supercoiled pBR322 DNA by agarose gel electrophoresis.
The target of assay [4] is T2, DNA topoisomerase 2-alpha. Briefly: Inhibition of 1 unit human topoisomerase 2alpha catalytic activity assessed as relaxation of 198 ng supercoiled pBR322 DNA at 100 uM by agarose gel electrophoresis.

As usually defined, the inhibition is how much of the control response was suppressed. For orientation: pIC50 means −log10 of the IC50, conventionally taken in molar units. With `CC1(C)CC[C@]2(C)CC[C@]3(C)C(=CC[C@@H]4[C@@]5(C)CC[C@H](O)[C@](C)(CO)[C@@H]5CC[C@]43C)[C@@H]2C1`, the outcome in assay [1] was inactive. In assay [2], the inhibition worked out at 33%. Also, the pIC50 in assay [3] is less than 3.70.

Consider `C=C(C)[C@@H]1CC[C@]2(C)CC[C@]3(C)[C@H](CC[C@@H]4[C@@]5(C)CC[C@H](O)[C@](C)(CO)[C@@H]5CC[C@]43C)[C@H]12`, for which the result in assay [1] was inactive. The inhibition entry in assay [2] is “inactive”.

Take `CC1(C)CC[C@]2(C)C[C@H](O)[C@]3(C)C(=CC[C@@H]4[C@@]5(C)CC[C@H](O)[C@](C)(CO)[C@@H]5CC[C@]43C)[C@@H]2C1`: the result in assay [1] was inactive. In assay [3], the Activity entry was “Dose-dependent effect” and the pIC50 was 4.41. Moreover, the outcome in assay [4] was Active.

Regarding `CC1(C)CC[C@]2(C)C[C@H](O)[C@]3(C)C(=CC[C@@H]4[C@@]5(C)CC[C@H](O)C(C)(C)[C@@H]5CC[C@]43C)[C@@H]2C1`, the outcome in assay [1] was inactive. For the same compound, in assay [3], the Activity entry was “Dose-dependent effect” and the pIC50 was 4.76. Besides, the result in assay [4] was Active.

For the compound `C=C(C)[C@@H]1CC[C@]2(C)CC[C@]3(C)[C@H](CC[C@@H]4[C@@]5(C)CC[C@H](O)C(C)(C)[C@@H]5CC[C@]43C)[C@@H]12` [LUPEOL], in assay [1], the result was inactive. Further, in assay [3], the Activity result was “Dose-dependent effect” and the pIC50 was 4.98. For the same compound, the outcome in assay [4] was Active.

Regarding `C=C(C)[C@@H]1CC[C@]2(CO)CC[C@]3(C)[C@H](CC[C@@H]4[C@@]5(C)CC[C@H](O)C(C)(C)[C@@H]5CC[C@]43C)[C@@H]12` [BETULIN], the result in assay [1] was inactive. For the same compound, in assay [3], the Activity result is “Dose-dependent effect” and the pIC50 is 4.41. In addition, in assay [4], the result was Active.

Values taken from ChEMBL document CHEMBL1156391, “Screening of triterpenoids isolated from Phyllanthus flexuosus for DNA topoisomerase inhibitory activity” (J Nat Prod, 2001).
